{
  "source": "patent US20260263596A1",
  "about": "“Programming B Cells to Produce IL-27 to Treat Inflammatory Diseases” (Board of Regents, The University of Texas System, priority 2022, published 2026)",
  "key": {"STING [1]": {"tested_on": "STING", "settings": "cited from earlier work"}, "B cells [2]": {"tested_on": "B cells", "assay": "IL-27 induction in B cells by innate priming followed by CD154 or αCD40 plus IL-21", "type": "cell-based, mouse", "settings": "then CD154 or αCD40 plus IL-21; for IL-27 secretion / IL-27 induction by primed B cells: priming with CDN, compared with gold-standard LPS priming; for priming of B cells for induction of Il27p28 and Ebi3: 30 μg/ml for 4 h"}, "STING [3]": {"target": "STING (Homo sapiens, UniProt Q86WV6)", "sequence (Q86WV6 whole entry H232R, species assumed)": "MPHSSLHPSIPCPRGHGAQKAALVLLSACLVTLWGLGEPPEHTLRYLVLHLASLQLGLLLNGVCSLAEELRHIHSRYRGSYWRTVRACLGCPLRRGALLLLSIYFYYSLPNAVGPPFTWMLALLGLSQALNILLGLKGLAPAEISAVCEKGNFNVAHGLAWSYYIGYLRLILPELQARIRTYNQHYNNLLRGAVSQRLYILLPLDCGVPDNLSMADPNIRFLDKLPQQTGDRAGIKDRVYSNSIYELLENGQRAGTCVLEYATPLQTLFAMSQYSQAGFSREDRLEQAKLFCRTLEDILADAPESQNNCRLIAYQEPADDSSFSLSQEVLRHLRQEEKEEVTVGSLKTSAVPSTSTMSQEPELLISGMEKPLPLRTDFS", "settings": "relative to c-di-GMP; cited from earlier work"}, "B cells [4]": {"tested_on": "B cells", "settings": "cited from earlier work"}, "ILC3s": {"tested_on": "ILC3s", "assay": "IL-27 stimulation of in vitro amplified ILC3s, FACS", "type": "cell-based, C57 mice", "from_the_text": "FIG. 5A-5C. […] ILC3s were sort enriched (70%) by surface markers (IL-7R+CD45+Lin−CD117+ST2−) from mesenteric lymph nodes and cultured in the presence of IL-2 and IL-7 (to promote ILC survival) as well as IL-1B plus IL-23 (to promote ILC3 proliferation)—CD117 and ST2 are preferentially, albeit not exclusively, expressed by ILC3s and ILC2s, respectively. After 7 d of culture, ILCs were amplified by >10-fold and accounted for >95% of all cells. After washing to remove cytokines, ILC3s were stimulated with nil, IL-1P/IL-23 (to promote basal IL-22 expression in ILC3s) or IL-27 for 12 h. Cells were analyzed by FACS for expression of (A) T-bet, NKp46 and (B) IL-22, IL-17A and IFNγ, as quantified in (C).\nAnalyze the impact of recombinant IL-27 (in vitro) and B-27 cells (in vivo) on ILC3 gene protein expression. Tg(Rorc-cre)34 (JAX #022791) and Rosa26fl-STOP-fl-EYFP (JAX #006148) mice will be crossed to generate TgRorc-creRosa26fl-STOP-fl-EYFP mice, which will allow us to sort purify EYFP+IL-7R+CD45+Lin−CD117+ST2−ILC3s. Sorted ILC3s will be cultured in the presence of IL-7 and IL-2, which promote ILC survival, and stimulated them with recombinant IL-27 for 0 h, 6 h, 12 h and 24 h."}, "[5]": {"tested_on": "STAT transcription factors", "assay": "STAT activation by human IL-27", "type": "cell-based"}, "[6]": {"settings": "enriched, in vitro amplified ILC3s from C57 mice, 12 h"}},
  "note": "“Also recorded” adds a separate entry of the source.",
  "data": [
    {"molecule": "Nc1nc2c(ncn2[C@@H]2O[C@H](CO)[C@@H](O)[C@H]2OP(=O)(O)OC[C@H]2O[C@@H](n3cnc4c(N)ncnc43)[C@H](O)[C@@H]2OP(=O)(O)O)c(=O)[nH]1", "note": "[2′5′-GpAp, linear GMP-AMP]", "values": [
      {"measurement": "STING activation", "setting": "STING [1]", "result": "does not activate STING"},
      {"measurement": "IL-27 secretion / IL-27 induction by primed B cells", "setting": "B cells [2]", "result": "inefficient"}
    ]},
    {"molecule": "Nc1nc2c(ncn2[C@@H]2O[C@@H]3COP(=O)(O)O[C@H]4[C@@H](O)[C@H](n5cnc6c(=O)[nH]c(N)nc65)O[C@@H]4COP(=O)(O)O[C@H]3[C@H]2O)c(=O)[nH]1", "note": "[c-di-GMP, 3′-5′ c-di-GMP]", "values": [
      {"measurement": "priming of B cells for induction of Il27p28 and Ebi3", "setting": "B cells [2]", "result": "sufficient"},
      {"measurement": "IL-27 secretion / IL-27 induction by primed B cells", "setting": "B cells [2]", "result": "at the same magnitude as those of IL-27 induced by the gold-standard condition"}
    ]},
    {"molecule": "Nc1ncnc2c1ncn2[C@@H]1O[C@@H]2COP(=O)(O)O[C@H]3[C@@H](O)[C@H](n4cnc5c(N)ncnc54)O[C@@H]3COP(=O)(O)O[C@H]2[C@H]1O", "note": "[c-di-AMP, 3′-5′ c-di-AMP]", "values": [
      {"measurement": "affinity to STING", "setting": "STING [3]", "result": "much lower affinity to STING than c-di-GMP"},
      {"measurement": "IL-27 secretion / IL-27 induction by primed B cells", "setting": "B cells [2]", "result": "inefficient"}
    ]},
    {"molecule": "cyclic GMP-AMP [cGAMP]", "values": [
      {"measurement": "priming of B cells for induction of Il27p28 and Ebi3", "setting": "B cells [2]", "result": "sufficient"},
      {"measurement": "IL-27 secretion / IL-27 induction by primed B cells", "setting": "B cells [2]", "result": "prime B cells for IL-27 induction by CD154; also recorded: at the same magnitude as those of IL-27 induced by the gold-standard condition"}
    ]},
    {"molecule": "IL-27: pleiotropic cytokine, heterodimer of IL-27p28 and EBI3 (protein, UniProt Q8NEV9 29-243; Q14213 21-229, looked up) Interleukin-27 subunit alpha: FPRPPGRPQLSLQELRREFTVSLHLARKLLSEVRGQAHRFAESHLPGVNLYLLPLGEQLPDVSLTFQAWRRLSDPERLCFISTTLQPFHALLGGLGTQGRWTNMERMQLWAMRLDLRDLQRHLRFQVLAAGFNLPEEEEEEEEEEEEERKGLLPGALGSALQGPAQVSWPQLLSTYRLLHSLELVLSRAVRELLLLSKAGHSVWPLGFPTLSPQP Interleukin-27 subunit beta: RKGPPAALTLPRVQCRASRYPIAVDCSWTLPPAPNSTSPVSFIATYRLGMAARGHSWPCLQQTPTSTSCTITDVQLFSMAPYVLNVTAVHPWGSSSSFVPFITEHIIKPDPPEGVRLSPLAERQLQVQWEPPGSWPFPEIFSLKYWIRYKRQGAARFHRVGPIEATSFILRAVRPRARYYVQVAAQDLTDYGELSDWSLPATATMSLGK", "values": [
      {"measurement": "STAT1/STAT3 activation, T-bet expression and IFNγ gene signature in B cells", "setting": "B cells [4]", "result": "induce STAT1/STAT3 activation, T-bet expression, and IFNγ gene signature"},
      {"measurement": "IFNγ in ILC3s", "setting": "ILC3s; [6]", "result": "did not affect"},
      {"measurement": "IL-17 in ILC3s", "setting": "ILC3s; [6]", "result": "reduced"},
      {"measurement": "expression of IL-22 in ILC3s", "setting": "ILC3s; [6]", "result": "upregulated"},
      {"measurement": "expression of T-bet in ILC3s", "setting": "ILC3s; [6]", "result": "upregulated"},
      {"measurement": "polarization of ILC3s to express T-bet and IL-22", "setting": "ILC3s; in vitro", "result": "polarizes ILC3s to express T-bet and IL-22; also recorded: can polarize ILC3s in vitro to express T-bet and IL-22"}
    ]},
    {"molecule": "human IL-27: human cytokine IL-27 (protein, UniProt Q8NEV9 29-243; Q14213 21-229, looked up) Interleukin-27 subunit alpha: FPRPPGRPQLSLQELRREFTVSLHLARKLLSEVRGQAHRFAESHLPGVNLYLLPLGEQLPDVSLTFQAWRRLSDPERLCFISTTLQPFHALLGGLGTQGRWTNMERMQLWAMRLDLRDLQRHLRFQVLAAGFNLPEEEEEEEEEEEEERKGLLPGALGSALQGPAQVSWPQLLSTYRLLHSLELVLSRAVRELLLLSKAGHSVWPLGFPTLSPQP Interleukin-27 subunit beta: RKGPPAALTLPRVQCRASRYPIAVDCSWTLPPAPNSTSPVSFIATYRLGMAARGHSWPCLQQTPTSTSCTITDVQLFSMAPYVLNVTAVHPWGSSSSFVPFITEHIIKPDPPEGVRLSPLAERQLQVQWEPPGSWPFPEIFSLKYWIRYKRQGAARFHRVGPIEATSFILRAVRPRARYYVQVAAQDLTDYGELSDWSLPATATMSLGK", "values": [
      {"measurement": "activation of STAT transcription factors", "setting": "[5]", "result": "can activate STAT transcription factors"}
    ]}
  ]
}
